# pIC50: −log10 of the molar value.
# Key:
# [1] = system: macrophage-mediated LDL oxidation (THP-1 cells); experiment: Macrophage-mediated LDL oxidation (THP-1 cells, TBARS); type: cell-based; conditions: for MDA nmol/mg LDL protein: LDL + cell + Cu2+, control 210.6 ± 10.7
# Experimental: Then, the resulting cells were cultivated for 3 days and activated by using macrophages sufficiently.
# Phellinsin A was dissolved in DMSO and diluted in various concentrations before used in the experiment. In order to catalyze the macrophage-mediated LDL oxidation, 2μL of 0.5 mM CuSO4 was added to the phellinsin A solution. Incubation was then carried out for 24 hours at 37° C. under a humidified atmosphere containing 5% CO2.
# [2] = biological target: T1, chitin synthase 2 of Saccharomyces cerevisiae (Saccharomyces cerevisiae, UniProt P14180); conditions: J. Antibiotics, 2000, 9: 903-911; cited from earlier work
# T1 sequence (P14180 1-963): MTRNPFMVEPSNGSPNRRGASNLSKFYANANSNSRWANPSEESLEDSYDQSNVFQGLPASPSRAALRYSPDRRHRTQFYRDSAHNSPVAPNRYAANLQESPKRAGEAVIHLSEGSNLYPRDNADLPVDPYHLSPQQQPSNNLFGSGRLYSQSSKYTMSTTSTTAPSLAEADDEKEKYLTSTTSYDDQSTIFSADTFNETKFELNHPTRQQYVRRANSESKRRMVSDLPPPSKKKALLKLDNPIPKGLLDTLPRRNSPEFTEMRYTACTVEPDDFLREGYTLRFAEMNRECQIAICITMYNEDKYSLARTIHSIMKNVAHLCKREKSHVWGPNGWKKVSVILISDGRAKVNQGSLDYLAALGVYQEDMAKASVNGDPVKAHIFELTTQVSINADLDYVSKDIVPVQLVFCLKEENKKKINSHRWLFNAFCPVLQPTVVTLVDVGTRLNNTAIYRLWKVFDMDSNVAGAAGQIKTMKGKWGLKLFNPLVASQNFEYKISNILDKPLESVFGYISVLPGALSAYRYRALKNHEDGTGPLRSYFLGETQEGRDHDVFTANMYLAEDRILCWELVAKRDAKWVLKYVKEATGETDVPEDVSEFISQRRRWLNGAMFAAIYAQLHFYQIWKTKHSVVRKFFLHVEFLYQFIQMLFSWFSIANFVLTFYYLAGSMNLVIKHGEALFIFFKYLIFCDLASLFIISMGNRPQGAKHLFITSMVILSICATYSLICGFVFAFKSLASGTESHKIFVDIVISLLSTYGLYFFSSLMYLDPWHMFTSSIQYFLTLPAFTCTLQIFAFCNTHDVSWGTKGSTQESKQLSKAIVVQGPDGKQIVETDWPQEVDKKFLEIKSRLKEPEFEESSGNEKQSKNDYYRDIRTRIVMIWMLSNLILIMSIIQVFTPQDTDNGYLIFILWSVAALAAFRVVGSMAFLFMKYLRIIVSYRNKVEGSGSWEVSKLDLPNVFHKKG
# [3] = system: ICR mice; experiment: Acute toxicity test of oral administration in mice; type: in vivo; conditions: oral 100, 500 and 1,000 mg/kg once, ICR mice, 7 days
# Experimental: (§1) In order to investigate the acute toxicity of Phellinus sp. PL3 extract or phellinsin A isolated from the same according to the present invention, the experimental procedure is performed as follows.
# (§2) 4-week old specific pathogens free (SPF) ICR mice were adopted in 12 of female and 12 of male mice (3 male and female mice/dose group, respectively) and raised in a breeding room under 12 L/12 D of light kept at temperature of 22±3° C. humidity of 55±10%. The experimental mice were adapted for a week before use. Animal fodder (purchased from Cheil Feed Co. Ltd., for mice and rat uses) and water were provided after sterilized and fed freely.
# (§3) The Phellinus sp. PL3 extract and phellinsin A isolated from the same prepared in Examples were made to 50 mg/mL of concentration by using 0.55% Tween 80 solvent and orally administered in 0.04 mL (100 mg/kg), 0.2 mL (500 mg/kg) and 0.4 mL (1,000 mg/kg) per 20 g of body weight. […]
# (§4) In addition, the experimental mice were killed, anatomized and examined on inner organs with the naked eyes in 7 days of administration. In a day interval from the 1st day, the body weights were measured to examine whether the Phellinus sp. […]
# [4] = Acute toxicity test of oral administration in mice; type: in vivo; conditions: both sexes, ICR, mouse, in vivo, po
# Experimental: as §1, §2, §3, §4
# [5] = system: LDL; experiment: Anti-oxidation to LDL by TBARS method (Cu2+-mediated LDL oxidation); type: biochemical, human; conditions: read-out: IC50 (anti-oxidant activity to LDL)
# Experimental: The Phellinus sp. PL3 extract and the phellinsin A isolated from the same prepared as described in Examples were examined for their anti-oxidant activity to LDL as follows.
# In the present invention, dialdehydes as an oxidative product of unsaturated fatty acids was measured by performing TBARS (thiobarbituric acid-reactive substances) method to investigate the anti-oxidant activities of Phellinus sp. PL3 extract and the phellinsin A isolated from Phellinus sp PL3.
# 300 mL of human plasma was centrifuged at 100,000×g for 24 hours with an ultracentrifuge to remove a very low density lipoprotein (VLDL)/chylomicron layer floated on the supernatant. The remaining solution was adjusted to 1.063 g/mL of gravity and centrifuged at 100,000×g for 24 hours to separate again 25 mL (1.5-2.5 mg protein/mL) of LDL floated on the supernatant. […]
# Then, 10 μL of 0.25 mM CuSO4 was added to the resulting solution, reacted at 37° C. for 4 hours and added with 1 mL of 20% trichloroacetic acid (TCA) solution to stop the reaction. […] The resulting solution was centrifuged at 3,000 rpm for 5 min to separate supernatant and measured the absorbance at 540 nm with a UV-visible spectrophotometer. Finally, the amount of malondialdehyde (MDA) generated by the coloring reaction was determined.
# In the experiment using Phellinus sp. […] PL3, the amount of malondialdehyde was quantified by using this standard curve.
# [6] = system: LDL; experiment: Anti-oxidant activity by monitoring conjugated dienes continuously (LDL oxidation, absorbance at 234 nm); type: biochemical, human; conditions: control lag time 44 min
# Experimental: 240 μL of LDL (120 μg/mL of protein concentration) separated in Experimental Example 1 was mixed with 2,510 μL of 10 mM phosphate buffer solution and added with 10 μL of phellinsin A solution prepared in 2 kinds of concentration (2 μM and 5 μM), respectively. At this moment, the phellinsin A was utilized after dissolved in DMSO and for a negative control, only solvent was added. For a positive control, probucol was added before use.
# Then, 240 μL of 0.125 mM CuSO4 was added to the resulting solution, reacted at 37° C. for 4 hours and coincidently, measured by monitoring the absorbance at 234 nm with a UV-visible spectrophotometer at 10 min intervals.
# [7] = DPPH radical scavenging; type: biochemical; conditions: for Radical scavenging activity (%): 100 μM solutions in methanol; for pIC50: after 35 min, read-out: IC50 (DPPH free radical scavenging)
# Experimental: Phellinsin A and 1-diphenyl-2-picryl hydrazyl (DPPH) were dissolved in methanol to be adjusted to 100 μM of concentration, respectively. Then, 1 mL of phellinsin A solution was mixed with 2 mL of DPPH solution and stirred well. […]
smiles,measurement,setting,value
"O=C1OC(c2ccc(O)c(O)c2)C(C(=O)O)/C1=C\c1ccc(O)c(O)c1 (stereo not shown) [Phellinsin A, phellinsin A]",MDA nmol/mg LDL protein,[1]; 1 μM,167.7 ± 6.2 nmol/mg LDL protein
same,MDA nmol/mg LDL protein,[1]; 2 μM,94.2 ± 4.7 nmol/mg LDL protein
same,MDA nmol/mg LDL protein,[1]; 5 μM,55.9 ± 2.8 nmol/mg LDL protein
same,MDA nmol/mg LDL protein,[1]; 10 μM,39.4 ± 0.9 nmol/mg LDL protein
same,anti-oxidant activity relative to probucol on macrophage-mediated LDL oxidation,"[1]; 2-10 μM, times stronger than probucol",2-3.7 times
same,inhibition of chitin synthase 2,[2],highly inhibit
same,"toxicity (clinical symptoms, deaths, body weight, blood tests, autopsy)",[3],no toxicity
same,LD50 at 7 days,[4],≥ 1000 mg/kg
same,pIC50,[5],5.28
same,lag time (conjugated dienes),[6]; 2 μM,192 min
same,lag time (conjugated dienes),"[6]; 5 μM, monitored up to 240 min",> 240 min
same,Radical scavenging activity (%),[7]; 5 min,55%
same,Radical scavenging activity (%),[7]; 10 min,87%
same,Radical scavenging activity (%),[7]; 30 min,92%
same,pIC50,[7],5.77
"CC(C)(Sc1cc(C(C)(C)C)c(O)c(C(C)(C)C)c1)Sc1cc(C(C)(C)C)c(O)c(C(C)(C)C)c1 [Probucol, probucol, reference compound]",MDA nmol/mg LDL protein,[1]; 1 μM,209.7 ± 1.7 nmol/mg LDL protein
same,MDA nmol/mg LDL protein,[1]; 2 μM,199.1 ± 10.7 nmol/mg LDL protein
same,MDA nmol/mg LDL protein,[1]; 5 μM,157.4 ± 2.4 nmol/mg LDL protein
same,MDA nmol/mg LDL protein,[1]; 10 μM,145.5 ± 3.9 nmol/mg LDL protein
same,lag time (conjugated dienes),[6]; 2 μM,63 min
same,lag time (conjugated dienes),"[6]; 5 μM, monitored up to 240 min",70 min
"Cc1c(C)c2c(c(C)c1O)CCC(C)(C(=O)O)O2 (stereo not shown) [trolox, reference compound]",pIC50,[7],4.73
